Ends that are not written are not given here.
What was measured:
[1] = target: T1, HLA-DRB1*1501 (Homo sapiens, UniProt P01903+P01911); assay: Antigen processing independent presentation system: fixed MGAR cells plus peptide-specific T cell hybridomas, IL-2 ELISA; assay type: cell-based
T1 construct: human cell line expressing HLA-DRB1*1501; host or cells: MGAR cells (human cell line), fixed with paraformaldehyde or fresh
Method: 100 μl of hybridoma cells were cultured with 5×10^4 MGAR cells (human cell line expressing HLA-DRB1*1501, Health Protection Agency Culture Collections, Salisbury, UK) in wells of a flat bottom 96-well plate. 50 μl complete RPMI-10% FCS containing a long peptide at 10 μg/ml or the same volume of DMSO (diluent of the peptide) was added to the wells. After 48 h, 120 μl of supernatant was removed and a mouse IL-2 ELISA (Enzyme-linked immunosorbent assay) performed. Clones that produce IL-2 recognise the antigen used. The remaining supernatants were frozen at −20° C.
96 well plates (Immunosorb 96 well, Nunc, Roskilde, Denmark) were coated with 50 μl/well purified rat anti-mouse IL-2 capture Ab (BD Biosciences, Oxford, UK), diluted 1:250 in carbonate buffer (3.56 g Na2CO3 (Sigma-Aldrich, Saint Louis, Mass.), 8.4 g NaHCO3 (Fisher Scientific, Loughborough, UK), 1 L elgastat water; pH 9.5) and incubated overnight at 4° C. After 2 washes in PBS-Tween (1 L 10× PBS, 9 L distilled water, 0.5 ml Tween (Sigma-Aldrich, Saint Louis, Mass.)), […] of PBS-10% FCS were added and incubated at RT for 1 hour. After 3 washes in PBS-Tween, 50 μl of supernatant or IL-2 standard (BD Biosciences, Oxford, UK) dilutions (in PBS-10% FCS) were added to the wells and incubated 2 h at RT. After 4 washes in PBS-Tween (Sigma-Aldrich, Saint Louis, Mass.), 50 μl/well of biotin rat anti-mouse IL2 (BD Biosciences, Oxford, UK) diluted 1:1000 in 10% FCS/PBS was added and incubated for 1 h at RT. After 4 washes, 50 μl/well extravidin peroxidase (Sigma-Aldrich, Saint Louis, Mass.) diluted 1:1000 in PBS was added and incubated 30 min at RT. After 4 washes, […] of substrate solution* was added and incubated at RT until a clear colour change was seen. The reaction was stopped using 50 μl/well 2M H2SO4 (BDH, Poole, UK) and plates were read at 450 nm (550 nm ref) with an ELISA reader (SpectraMax Pro, Molecular Device, Sunnyvale, Calif.). *Substrate solution: 10 ml phosphate-citrate buffer 0.1M (5.14 ml 0.2M Na2HPO4 (BDH, Poole, UK), 4.86 ml 0.1M citrate (Sigma), 10 ml elgastat water), 0.1 ml of TMB (defrost 3,3′,5,5′-Tetramethylbenzidine at 10 mg/ml in DMSO, Sigma-Aldrich, Saint Louis, Mass.), 6 μl of hydrogen peroxide (Sigma-Aldrich, Saint Louis, Mass.).
The specific clones were then tested for their responses to the 15-mer peptides (POP-1 to POP-12) with fixed or not fixed MGAR cells. For this purpose, 1×10^5 cells from the individual clones are cultured with 5×10^4 fixed or fresh MGAR cells in a 96-well flat bottom plate. […] After 48 h in culture, 120 μl of supernatant was harvested and analysed by ELISA to assess IL-2 production.

[2] = system: HLA-DRB1*1501 transgenic mice; assay: EAE induction by priming with long peptide; assay type: in vivo; settings: long peptides, HLA-DRB1*1501 mice, FIG. 1
Method: For each peptide, in silico studies were carried out to predict DR2 (HLA-DRB1*1501) binding capacity, and in vitro (proliferation assay) and in vivo (EAE induction) studies were carried out to investigate response.
HLA-DRB1*1501 transgenic mice were injected with 100 μl containing 100 μg of long peptide in PBS (Lonza, Verviers, Belgium) or PBS alone, and with Complete Freund Adjuvant (CFA; BD Difco, Oxford, UK) with 4 mg/ml Mycobacterium tuberculosis (MTb, BD Difco, Oxford, UK) subcutaneously at the base of the tail. For EAE study, the mice were injected with 200 ng of pertussis toxin at the same time as the priming and 2 days after. The mice were then followed, weight and scored for disease every day.

[3] = system: splenocytes and lymph node cells; assay: In vitro proliferation assay for immunogenicity of the long peptides; assay type: cell-based, HLA-DRB1*1501 transgenic mice; settings: HLA-DRB1*1501 mice, FIG. 1
[4] = system: splenocytes (SPL) and lymph node cells (LNC); assay: Ex vivo tolerance assay: apitope pre-treatment, priming with long peptide, then recall proliferation and cytokine production; assay type: in vivo, HLA-DRB1*1501 mice
[5] = 15-mers spanning HEAL-26, HEAL-26 specific hybridomas from DR2 mice
[6] = LNC (lymph node) of pre-treated mice
[7] = SPL (spleen) of pre-treated mice

Substance	identification as apitope [1, 5]	response in the in vivo study (EAE induction) [2]	response in the in vitro study (proliferation assay) [3]	IL-17 production ([4]; LNC of pre-treated mice)	proliferation (3H-thymidine incorporation) [4, 6]	proliferation (3H-thymidine incorporation) [4, 7]	IL-17 production ([4]; SPL of pre-treated mice)	also measured
EKLIETYFSKNYQDY [POP-8, 15-mer overlapping peptide spanning HEAL-26]	identified as apitopes							
GVLPWNAFPGKVCGSNLLSICKTAEFQM-NH2 (cysteine pairing not given here) [GVLP-28, long peptide from a hydrophilic domain of PLP, residues 207-234]		respond	respond	significant inhibition				stimulation index of LNC proliferation ([4]; LNC of pre-treated mice): decrease
HEALTGTEKLIETYFSKNYQDYEYLI-NH2 [HEAL-26, long peptide from a hydrophilic domain of PLP, residues 36-61]		respond	respond	decrease	decrease	decrease	decrease	IL-5 production ([4]; pre-treated mice, cell population not specified): increase
LTGTEKLIETYFSKN [POP-4, 15-mer overlapping peptide spanning HEAL-26]	identified as apitopes			significant decrease	inhibition	inhibition	significant decrease	IFN-γ production ([4]; LNC of pre-treated mice): significant decrease; TNF-α production ([4]; LNC of pre-treated mice): significant decrease; IFN-γ production ([4]; SPL of pre-treated mice): significant decrease; TNF-α production ([4]; SPL of pre-treated mice): significant decrease
TEKLIETYFSKNYQD [POP-7, 15-mer overlapping peptide spanning HEAL-26]	identified as apitopes							
TTCQSIAFPSKTSAS [POP-15, 15-mer overlapping peptide spanning TWTT-28]				significant inhibition	significant inhibition	no difference	less	GM-CSF production ([4]; LNC of pre-treated mice): significant inhibition; IFN-γ production ([4]; LNC of pre-treated mice): significant inhibition; cytokine production ([4]; LNC of pre-treated mice): inhibit very well; GM-CSF production ([4]; SPL of pre-treated mice): less; IFN-γ production ([4]; SPL of pre-treated mice): less; cytokine production ([4]; SPL of pre-treated mice): inhibit very well
TWTTCQSIAFPSKTSASIGSLCADARMY-NH2 (cysteine pairing not given here) [TWTT-28, long peptide from a hydrophilic domain of PLP, residues 179-206]		respond	respond		inhibit very well	inhibit very well		cytokine production ([4]; LNC of pre-treated mice): inhibit very well; cytokine production ([4]; SPL of pre-treated mice): inhibit very well
VLPWNAFPGKVCGSN [POP-22, 15-mer overlapping peptide spanning GVLP-28]				significant inhibition				identification as apitope ([1]; 15-mers spanning GVLP-28, TWTT-28 specific hybridomas from DR2 mice (so in the source)): identified as an apitope; stimulation index of LNC proliferation ([4]; LNC of pre-treated mice): decrease

Source: patent US20150352197A1, “PEPTIDE” (Apitope International NV, priority 2013, published 2015)
